We go through 10 molecules from paper PMC8045006 (Heliyon, 2021).

Entries after “also recorded” stand apart in the source; their conditions may differ. Read-outs that look alike come from different tables or passages of the source.

One may read the IC50 as the concentration needed to halve the response being measured.

Experiment [1] concerns the target T1, Electrical (Torpedo californica) AChE (type VI-S) (Electrophorus electricus, UniProt O42275).
T1 construct: purchased Sigma-Aldrich (Steinheim, Germany) type VI-S
Description: biochemical. Type of experiment: biochemical. The protocol:
(§1) Fluka provided potassium hydroxide, sodium hydrogen carbonate, potassium dihydrogen phosphate, and dipotassium hydrogen phosphate. Sigma-Aldrich (Steinheim, Germany) provided BuChE (E.C.3.1.1.8, from equine serum), Electrical ([…]) AChE (type VI-S), acetylthiocholine iodide, 5,5⸍-dithiobis [2-nitrobenzoic acid]
(§2) In order to set the derivatives’ stock solutions, they were dissolved in the dimethyl sulfoxide (DMSO). Then, we diluted them in the absolute ethanol for obtaining 3 varying concentrations for assay. The experiments were done in triplicate for each concentration. The assay solution included […], […] of phosphate buffer (0.1M, pH = 8), […] of 5 IU/mL butryl cholinesterase solution, and […] of inhibitor. Afterwards, the product was pre-incubated at 25 ᵒC for 10 min. Then, […] of butyrylthiocholine iodide was added as the substrate to the 24 wells for starting the reaction. […] For justifying non-enzymatic reaction, we conducted assays with a blank having all components except ButChE.
Moreover, AChE took the same assay for obtaining the derivatives’ anti-AChE activity.

Experiment [2] concerns the target T2, BuChE (E.C.3.1.1.8, from equine serum) (Equus caballus, UniProt P81908).
T2 construct: BuChE (E.C.3.1.1.8, from equine serum); purchased Sigma-Aldrich (Steinheim, Germany); host or cells: equine serum
The experiment can be described thus: biochemical. Type of experiment: biochemical. The protocol: as §1
as §2, with “ButChE. […]” for “ButChE.”

The mark [3] stands for this setting: Ellman's method, average ±SD, triplicate, read-out: AChE Inhibition [IC50 (μM)].
Where [4] appears, read: Ellman's method, average ±SD, triplicate, read-out: BuChE Inhibition [IC50 (μM)].
Where [5] appears, read: read-out: AChE Inhibition [IC50 (μM)].
The mark [6] stands for this setting: read-out: BuChE Inhibition [IC50 (μM)].

T2 sequence (P81908 whole entry): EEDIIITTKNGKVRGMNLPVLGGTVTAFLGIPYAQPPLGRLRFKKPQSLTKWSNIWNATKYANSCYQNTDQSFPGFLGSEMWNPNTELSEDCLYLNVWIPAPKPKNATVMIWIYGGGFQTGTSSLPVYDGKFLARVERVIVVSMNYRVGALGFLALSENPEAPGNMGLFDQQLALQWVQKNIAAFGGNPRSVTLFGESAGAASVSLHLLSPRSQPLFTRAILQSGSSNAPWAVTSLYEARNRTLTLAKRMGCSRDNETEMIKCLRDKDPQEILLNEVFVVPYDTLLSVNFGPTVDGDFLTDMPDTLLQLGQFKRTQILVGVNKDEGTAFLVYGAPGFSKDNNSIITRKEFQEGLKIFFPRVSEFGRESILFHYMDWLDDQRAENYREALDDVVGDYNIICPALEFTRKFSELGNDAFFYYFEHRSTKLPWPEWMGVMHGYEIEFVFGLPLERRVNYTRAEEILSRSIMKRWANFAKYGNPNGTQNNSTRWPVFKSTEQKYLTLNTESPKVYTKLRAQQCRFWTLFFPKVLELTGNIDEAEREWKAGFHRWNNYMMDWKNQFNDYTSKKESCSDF
T1 sequence (O42275 24-633): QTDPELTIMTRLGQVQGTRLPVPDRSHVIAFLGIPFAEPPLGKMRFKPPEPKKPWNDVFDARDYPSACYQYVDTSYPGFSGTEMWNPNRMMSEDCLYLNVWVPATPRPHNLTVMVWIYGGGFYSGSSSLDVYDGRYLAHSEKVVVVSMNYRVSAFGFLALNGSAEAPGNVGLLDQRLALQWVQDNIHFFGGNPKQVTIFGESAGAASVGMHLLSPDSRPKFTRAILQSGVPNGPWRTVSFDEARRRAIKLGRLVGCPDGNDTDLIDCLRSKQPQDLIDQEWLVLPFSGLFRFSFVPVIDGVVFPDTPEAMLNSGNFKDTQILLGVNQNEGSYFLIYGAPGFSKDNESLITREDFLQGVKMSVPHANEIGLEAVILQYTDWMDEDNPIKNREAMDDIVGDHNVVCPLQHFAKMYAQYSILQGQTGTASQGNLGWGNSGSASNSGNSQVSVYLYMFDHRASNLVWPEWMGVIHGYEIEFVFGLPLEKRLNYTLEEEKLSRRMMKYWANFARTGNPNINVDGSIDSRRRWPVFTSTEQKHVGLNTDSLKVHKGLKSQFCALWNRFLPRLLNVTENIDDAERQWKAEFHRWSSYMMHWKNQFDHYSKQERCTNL

With `COc1cc2ncn(Cc3ccc[n+](Cc4cccc(Br)c4)c3)c(=O)c2cc1OC` [BOP-6, 1-(3-Bromobenzyl)-3-((6,7-dimethoxy-4-oxoquinazolin-3(4H)-yl)methyl) pyridin-1-ium bromide], the IC50 in experiment [1] (setting [3]) is 6.77 ± 0.24 µM; in experiment [2] (setting [4]) it was 8.77 ± 0.11 µM.
For `O=c1c2ccccc2ncn1Cc1ccc[n+](Cc2ccc(Cl)cc2)c1` [BOP-2, 1-(4-Chlorobenzyl)-3-((4-oxoquinazolin-3(4H)-yl)methyl) pyridin-1-ium chloride], in that order: 47.1 ± 0.48 µM and 29 ± 0.43 µM.
Take `O=c1c2ccccc2ncn1Cc1ccc[n+](Cc2cccc(Br)c2)c1` [BOP-1, 1-(3-Bromobenzyl)-3-((4-oxoquinazolin-3(4H)-yl)methyl) pyridin-1-ium bromide]: the concentration for half-maximal inhibition (IC50) in experiment [1] (setting [3]) was 5.9 ± 0.07 µM; in experiment [2], 6.76 ± 0.04 µM.
Consider `O=c1c2ccccc2ncn1Cc1ccc[n+](Cc2ccc(F)cc2)c1` [BOP-3, 1-(4-Flourobenzyl)-3-((4-oxoquinazolin-3(4H)-yl)methyl) pyridin-1-ium chloride], for which the figures for the IC50 in experiment [1] (setting [5]) and in experiment [2] (setting [6]) were more than 100 µM and 70.43 ± 0.41 µM, respectively.
Take `O=c1c2ccccc2ncn1Cc1ccc[n+](Cc2ccccc2)c1` [BOP-5, 1-Benzyl-3-((4-oxoquinazolin-3(4H)-yl)methyl) pyridin-1-ium bromide]: the concentration for half-maximal inhibition (IC50) in experiment [1] (setting [3]) is 41.2 ± 0.62 µM; in experiment [2] (setting [4]), 12.63 ± 0.11 µM.
The like results for `COc1cc2ncn(Cc3ccc[n+](Cc4ccccc4)c3)c(=O)c2cc1OC` [BOP-10, 1-Benzyl-3-((6,7-dimethoxy-4-oxoquinazolin-3(4H)-yl)methyl) pyridin-1-ium bromide] were, in that order, 10.1 ± 0.28 µM and 18.8 ± 0.34 µM.
For the molecule `COc1cc2ncn(Cc3ccc[n+](Cc4ccc(Cl)cc4)c3)c(=O)c2cc1OC.[Cl-]` [BOP-8, 1-(4-Chlorobenzyl)-3-((6,7-dimethoxy-4-oxoquinazolin-3(4H)-yl)methyl) pyridin-1-ium chloride], the values for the IC50 in experiment [1] and in experiment [2] (setting [4]) were 1.11 ± 0.09 µM and more than 100 µM, respectively. Besides, the “BuChE inhibition (result in words)” value in experiment [2] (Ellman's method) is “no inhibitory activity; also recorded: no inhibition”.
As to `COc1cc2ncn(Cc3ccc[n+](Cc4ccc(F)cc4)c3)c(=O)c2cc1OC` [BOP-7, 1-(4-Flourobenzyl)-3-((6,7-dimethoxy-4-oxoquinazolin-3(4H)-yl)methyl) pyridin-1-ium chloride], the results for the concentration for half-maximal inhibition (IC50) in experiment [1] (setting [5]) and in experiment [2] (setting [6]) were 21.92 ± 0.2 µM and more than 100 µM, respectively.
Regarding `COc1cc2ncn(Cc3ccc[n+](Cc4ccc(C#N)cc4)c3)c(=O)c2cc1OC` [BOP-9, 1-(4-Cyanobenzyl)-3-((6,7-dimethoxy-4-oxoquinazolin-3(4H)-yl)methyl) pyridin-1-ium bromide], the IC50 in experiment [1] (setting [3]) and in experiment [2] (setting [4]) was more than 100 µM each time.
On to `N#Cc1ccc(C[n+]2cccc(Cn3cnc4ccccc4c3=O)c2)cc1` [BOP-4, 1-(4-Cyanobenzyl)-3-((4-oxoquinazolin-3(4H)-yl)methyl) pyridin-1-ium bromide], for which the IC50 in experiment [1] (setting [3]) and in experiment [2] (setting [4]) was more than 100 µM in each case.
